Test results: paper PMC7793531 (International Journal of Molecular Sciences, 2020)
Starred links: 1 amine or outer side, 2 acyl side, 3 side chain; linkers in the order of their positions; H or OH if unused. Non-standard residues stand in square brackets, D forms with d. Residues, ends and D or L forms follow the SMILES beside them. Groups on a side chain read outwards from the residue. ξ: configuration not given here. *: point of attachment. Oic(3aξ,7aξ) = O=C(O)[C@@H]1CC2CCCCC2N1; X1 = N=C(N)NCCCC[C@H](N)CN*; Dab = NCC[C@H](N)C(=O)O; CO = O=C([*:1])[*:2]

Columns and labels:
[1] = molecular target: T1, VEGF-A165/NRP-1 complex (Homo sapiens, UniProt O14786); test: Competitive ELISA-like assay, inhibition of bt-VEGF-A165 binding to immobilized NRP-1; details: recombinant human NRP-1, bt-VEGF-A165, chemiluminescence; read-out: IC50, VEGF-A165/NRP-1 complex inhibitory effect
T1 construct: purchased R&D Systems
T1 sequence (O14786 22-641 limits assumed): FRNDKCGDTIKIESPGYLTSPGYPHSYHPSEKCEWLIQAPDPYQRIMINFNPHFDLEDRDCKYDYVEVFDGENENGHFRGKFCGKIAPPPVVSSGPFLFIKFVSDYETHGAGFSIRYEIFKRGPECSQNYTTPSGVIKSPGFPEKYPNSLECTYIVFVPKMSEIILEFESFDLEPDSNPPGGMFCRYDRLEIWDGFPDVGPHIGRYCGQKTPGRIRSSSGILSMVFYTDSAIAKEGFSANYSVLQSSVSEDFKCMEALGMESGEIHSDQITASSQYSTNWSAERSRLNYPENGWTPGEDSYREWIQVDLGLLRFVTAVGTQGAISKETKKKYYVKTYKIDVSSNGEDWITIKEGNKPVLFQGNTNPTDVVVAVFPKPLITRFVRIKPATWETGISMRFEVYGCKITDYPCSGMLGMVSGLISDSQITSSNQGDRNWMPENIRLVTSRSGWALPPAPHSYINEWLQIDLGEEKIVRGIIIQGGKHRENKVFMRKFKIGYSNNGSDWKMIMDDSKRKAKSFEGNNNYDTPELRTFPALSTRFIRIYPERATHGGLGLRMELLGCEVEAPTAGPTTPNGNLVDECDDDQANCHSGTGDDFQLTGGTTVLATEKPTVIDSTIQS
Procedure: Inhibitory activity of urea–peptide hybrids against VEGF-A165/NRP-1 complex formation was assessed with a screening ELISA-like assay. NRP-1 was immobilized on microplate wells by simple adsorption and urea–peptide hybrids competed for NRP-1 with biotinylated VEGF-A165 (bt-VEGF-A165). The amount of receptor bound bt-VEGF-A165 was visualized by its interaction with the streptavidin–horseradish peroxidase conjugate (strep-HRP) and the chemiluminescent substrate. The first analyzed group of compounds were analogues 1–3 with the urea bond between L1 and L2. […] The best hybrid in this group was compound 3, which had Lys^U (gDab) branching (where “g” corresponds to guanidinium group), but its IC50 value decreased only 2-fold. Therefore, we assume that no additional interactions between urea bond and the surface of the protein occurred. […] In the case of urea–peptide hybrids, the urea bond might be capable of forming additional hydrogen bonds with protein residues on the surface of NRP-1. The affinity of compounds may conceivably be affected by the colocation of the urea bond and the free amino group of hArg in the branching. In addition, for compounds 4–6, we can observe that decreasing the distance between the free amino group in the main chain and the urea bond in the branching has a positive effect on compounds’ affinity for NRP-1.
This method was previously described for NRP-1 [44, 45, 46]. Briefly, overnight coating at 4 °C of the flat bottom surface of a 96-well plate with 100 μL (200 ng/well) recombinant human NRP-1, NRP-2, VEGFR-1 or VEGFR-2 was followed by non-specific interactions blocking using 0.5% bovine serum albumin (BSA) in PBS. Next, 50 µL of urea–peptide hybrid in PBS and 50 µL (400 ng/mL) of human (bt)-VEGF-A165 in PBS containing 4 µg/mL of heparin were added respectively. Plates were incubated for 2 h at RT, and then washed and treated with streptavidin-horseradish peroxidase conjugate in PBS (1:8000). Next, 100 µL chemiluminescent substrate was added, and luminescence was quantified using Tecan Infinite F200Pro microplate reader (Männedorf, Switzerland). In a positive control (P) only (bt)-VEGF-A165 was present in wells. Not coated by receptor wells were treated as a negative control (N). Percentages of inhibition were calculated by the following formula:100% − [[(S − N)/(P − N)]∙100%](1) where S is the signal intensity measured in wells with urea–peptide hybrid. The IC50 of each urea–peptide hybrid was calculated using the nonlinear regression function with GraphPad Prism Version-5.01 (GraphPad Software, San Diego, CA, USA). Data are presented as log (inhibitor) versus normalized response-variable slope (Figure S16). Data are the means ± SEMs of two or three independent experiments, each performed in triplicate.

[2] = molecular target: T2, VEGF-A165/VEGF-R1 complex (Homo sapiens, UniProt P17948); test: Competitive ELISA-like assay, VEGF-A165/VEGF-R1 complex formation; format: binding
T2 construct: purchased R&D Systems
Excerpt: Amino acid sequence homology for primary structures of NRP-1 and NRP-2 is 44% [81, 82]. Structural studies have shown that both receptors bind VEGF-A165 using a conserved binding pocket core, formed by the b1 subdomain loops. VEGF-A165 interacts also with VEGF-R1 and R2 receptors by different fragments encoded by exons 1–5 [84, 85]. Affinity studies were done using modified ELISA-like assay, performed in the same manner as affinity tests for NRP-1 after optimization of method for individual protein. […] However, this value is more than two times higher compared to VEGF-A165/NRP-1 complex inhibition.
This method was previously described for NRP-1 [44, 45, 46]. […] Next, 100 µL chemiluminescent substrate was added, and luminescence was quantified using Tecan Infinite F200Pro microplate reader (Männedorf, Switzerland). […] Percentages of inhibition were calculated by the following formula:100% − [[(S − N)/(P − N)]∙100%](1) where S is the signal intensity measured in wells with urea–peptide hybrid. The IC50 of each urea–peptide hybrid was calculated using the nonlinear regression function with GraphPad Prism Version-5.01 (GraphPad Software, San Diego, CA, USA). […]

T2 sequence (P17948 27-756 limits assumed, one chain of several): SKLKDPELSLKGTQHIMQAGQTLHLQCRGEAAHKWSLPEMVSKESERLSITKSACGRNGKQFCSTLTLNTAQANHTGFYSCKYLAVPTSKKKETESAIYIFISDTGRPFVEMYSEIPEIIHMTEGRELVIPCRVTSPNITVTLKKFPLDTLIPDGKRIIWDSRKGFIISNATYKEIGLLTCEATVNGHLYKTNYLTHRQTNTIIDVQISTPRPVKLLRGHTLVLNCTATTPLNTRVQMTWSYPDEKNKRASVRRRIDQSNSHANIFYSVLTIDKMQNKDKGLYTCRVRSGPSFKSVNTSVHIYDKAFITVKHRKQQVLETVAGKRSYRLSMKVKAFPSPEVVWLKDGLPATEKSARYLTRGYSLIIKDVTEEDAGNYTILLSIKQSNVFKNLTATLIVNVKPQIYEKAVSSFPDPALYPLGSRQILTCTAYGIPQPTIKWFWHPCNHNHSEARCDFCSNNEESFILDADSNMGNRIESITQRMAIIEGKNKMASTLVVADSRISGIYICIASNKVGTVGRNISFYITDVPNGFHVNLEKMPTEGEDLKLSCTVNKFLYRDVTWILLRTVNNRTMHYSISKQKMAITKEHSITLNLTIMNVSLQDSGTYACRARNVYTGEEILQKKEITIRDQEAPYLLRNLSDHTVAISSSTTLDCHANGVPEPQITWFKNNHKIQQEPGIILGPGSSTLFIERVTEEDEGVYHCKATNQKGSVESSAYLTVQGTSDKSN

IC50 [1]: 190 nM | IC50, VEGF-A165/VEGF-R1 complex formation [2]: no affinity
SMILES: N=C(N)NCCCC[C@H](N)CNC(=O)NCC[C@H](N)C(=O)N[C@@H](CCN)C(=O)N1C2CCCCC2C[C@H]1C(=O)N[C@@H](CCCNC(=N)N)C(=O)O (stereo partly drawn) [Compound 6, H-Dab(hArg^U)Dab-Oic-Arg-OH] (H-[Dab]([CO-X1])[Dab][Oic(3aξ,7aξ)]R-OH)
